Reference: patent US20230270781A1, “TREATMENT OR PREVENTION OF PRO-INFLAMMATORY DISEASES OR CONDITIONS USING INDUCED REGULATORY T (ITREG) CELLS” (RAPA THERAPEUTICS, LLC, priority 2020, published 2023)

How the values were obtained:
[1] = tested on: human CD4+ and CD8+ T cells; experiment: Flow cytometry of FOXP3, Tbet, GATA3 in extended hybrid Th2/TREG culture (days 12, 20, 32); type: cell-based
Text: To evaluate these transcription factors in our manufacturing method, T cells were first subjected to the step 1 de-differentiation procedure and then re-differentiated in the hybrid TREG-Th2 culture condition (IL-2, TGF-β, and IL-4). In addition, we compared the effects of pemetrexed with a classical mTOR inhibitor.
The iTREG phenotype is considered to be unstable; as such, we evaluated the stability of T cells re-differentiated using the hybrid TREG-Th2 culture condition at delayed time points, including days 20 and 32 of culture. In addition, to test phenotype stability in a rigorous manner, between day 24 and day 32 of culture, T cells received a high level of co-stimulation (3:1 bead-to-T cell ratio) and were propagated in media without cytokines or pharmacologic agents.
FIGS. 19A-19D illustrate that extended culture of de-differentiated T cells in the hybrid Th2/TREG polarization condition containing pemetrexed results in the generation of CD4^+ T cells expressing FOXP3 and GATA3 transcription factors. […] At days 12, 20, and 32 of culture, T cells were harvested and subjected to surface flow cytometry (CD4 marker) and intra-cellular staining for the following transcription factors, FOXP3, Tbet, and GATA3. The data above show the percent CD4 cells out of the total cultured population (FIG. 19A); the percent of CD4 cells that expressed the TREG transcription factor FOXP3 (FIG. 19B); the percent of CD4 cells that expressed the Th1 transcription factor Tbet (FIG. 19C); and the percent of CD4 cells that expressed the Th2 transcription factor GATA3 (FIG. 19D).
FIGS. 20A-20D illustrate that extended culture of de-differentiated T cells in the hybrid Th2/TREG polarization condition containing pemetrexed results in the generation of CD8^+ T cells expressing FOXP3 and GATA3 transcription factors. […] At days 12, 20, and 32 of culture, T cells were harvested and subjected to surface flow cytometry (CD8 marker) and intra-cellular staining for the following transcription factors, FOXP3, Tbet, and GATA3. […]

[2] = tested on: human CD4+ and CD8+ T cells; experiment: Expansion of de-differentiated T cells in Th1, TREG or hybrid Th2/TREG polarization with or without pemetrexed; type: cell-based
Experimental: Human CD4^+ and CD8^+ T cells were subjected to a 3-day de-differentiation procedure (“STEP 1”). […] In addition, the T cell culture in the presence of the variable polarization conditions was performed without the novel inhibitory molecule, pemetrexed (“0”) or in the presence of variable concentrations of pemetrexed, as indicated (10 nM [“10”]; 33 nM [“33”]; or 100 nM [“100”]. After a total of 10 days of culture, the n=24 cultures were harvested and live cells were enumerated and graphed above (y-axis indicated number of cells × 10^6; input cell number was 1.5 × 10^6 cells).

[3] = tested on: human CD4+ and CD8+ T cells; experiment: Luminex cytokine secretion in extended hybrid Th2/TREG culture (days 12, 20, 32); type: cell-based; details: for ability of T cells to secrete IL-5 / ability of T cells to secrete IL-13: inhibitor in TREG-Th2 re-differentiation culture: temsirolimus 1.0 µM or pemetrexed 10 nM
Text: (§1) FIGS. 21A-21D illustrates that extended culture of de-differentiated T cells in the hybrid Th2/TREG polarization condition results in the generation of T cells expressing with a predominant Th2 cytokine phenotype: IL-4, IL-5, and IL-13 secretion. […] At days 12, 20, and 32 of culture, the T cells were harvested, washed, and restimulated with 3/28 beads (3:1 ratio) for 24 hr; the resultant supernatant was harvested and tested for cytokine content by Luminex multi-analyte method. All results shown are expressed as cytokine level in pg per ml per 1 × 10^6 cells/ml/24 hr. The Th2 cytokine IL-10 was also evaluated: all values were less than 20 pg/ml per 1 × 10^6 cells/ml/24 hr.
as §1, with “22A-22D illustrate” for “21A-21D illustrates”, “IL-2, IFN-γ,” for “IL-4, IL-5,”, “GM-CSF” for “IL-13”, “inflammatory cytokines IL-17 and TNF-α were” for “Th2 cytokine IL-10 was”

[4] = tested on: human CD4+ and CD8+ T cells; experiment: RNA expression analysis (Luminex Quantigene) after 3-day de-differentiation culture; type: cell-based; details: relative to control Th1/Tc1 culture, temsirolimus 1 µM
Experimental: At the end of the de-differentiation interval, cells were harvested, RNA was isolated, and RNA expression analysis was performed by Luminex Quantigene method. All results shown represent relative RNA expression, with results normalized to a value of 1.0 for the Th1/Tc1 control culture.

[5] = tested on: human CD4+ and CD8+ T cells; experiment: T cell yield at day 13 after de-differentiation interval and re-stimulation without inhibitors; type: cell-based; details: column #7; temsirolimus reduced to 0.1 µM
Experimental: After 10 days (13 days of total culture), the T cells were harvested, enumerated, and evaluated by flow cytometry. FIG. 8 illustrates the effect of culture components during the de-differentiation interval on subsequent T cell yield (at day 13 of culture). […] After the 3-day interval, media was exchanged to fresh X-Vivo 20 without inhibitors, high-level co-stimulation was provided (3:1 bead-to-T cell ratio), and the T cell growth cytokines IL-2 (100 IU/ml) and IL-7 (10 ng/ml) were added. At day 13 of culture, viable T cells were enumerated and the overall yield is shown relative to day 0 input number.

[6] = tested on: human CD4+ and CD8+ T cells; experiment: Western blot for mTORC1 complex protein Raptor after 3-day de-differentiation culture; type: cell-based
Text: After the 3-day culture interval, the T cells were harvested, and protein was isolated and subjected to western blot analysis for the mTORC1 complex protein, Raptor, and the housekeeping gene, Actin.

[7] = tested on: human CD4+ and CD8+ T cells; experiment: Western blot for Raptor, Rictor, p70S6K, SGK1 after 3-day de-differentiation culture; type: cell-based; details: relative to control culture without the three inhibitors; temsirolimus 1 µM, Vitamin D 0.03-1.0 nM, Daclizumab 50 µg/ml
Text: After the 3-day culture interval, the T cells were harvested, and protein was isolated and subjected to western blot analysis for the mTORC1 complex protein, Raptor; the mTORC2 complex protein, Rictor; the post-mTORC1 protein p70S6K; the post-mTORC2 protein, SGK1; and the housekeeping gene, GAPDH.

[8] = tested on: T cell TCR specificities of peripheral blood mononuclear cells; experiment: RNA-based T cell receptor repertoire profiling pre- and post-etanercept therapy; type: in vivo, human
Text: (§2) FIGS. 23A & 23B depict the use of RNA-based T cell receptor sequencing to detect a widespread up- and down-regulation of T cell TCR specificities after therapy with the TNF-α inhibitor, etanercept. In FIG. 23, RNA was isolated from peripheral blood mononuclear cells from an patient pre- and post-therapy with etanercept therapy. The RNA was subjected to TCR repertoire profiling, as previously described by Rosati E, Dowds CM, Liaskou E, Henriksen EKK, Karlsen TH, Franke A. Overview of methodologies for T-cell receptor repertoire analysis. BMC Biotechnol. 2017;17(1):61.
as §2, with “FIGS. 36A-36B” for “FIGS. 23A & 23B”, “depict” for “depict the”, “In FIGS. 36A-36B,” for “In FIG. 23,”, “from a” for “from an”

[9] = tested on: human CD4+ and CD8+ T cells; experiment: Western blot for pro-apoptosis molecule BIM after 3-day de-differentiation culture; type: cell-based; details: 1:3 bead-to-T cell ratio; temsirolimus, Vitamin D 0.1 nM, Daclizumab 50 µg/ml
Text: After the 3-day culture interval, the T cells were harvested, and protein was isolated and subjected to western blot analysis for the pro-apoptosis-related gene, BIM, and the housekeeping gene, Actin.

[10] = 3-day culture, bead-to-T cell ratio 1:3, Vitamin D 0.1 or 1.0 nM
[11] = patient PBMC, post- versus pre-etanercept

In the case of `Nc1nc2[nH]cc(CCc3ccc(C(=O)N[C@@H](CCC(=O)O)C(=O)O)cc3)c2c(=O)[nH]1` [pemetrexed], the “CD4 cells expressing GATA3” value ([1]; end of culture, hybrid condition with pemetrexed 10 nM versus no inhibitor or temsirolimus) is reported as “highest end-of-culture Th2-associated GATA3 expression”, the “CD8+ T cells expressing TBET” value ([1]; hybrid condition in the presence of pemetrexed 10 nM) is reported as “lowest levels” and the “CD4 cells expressing TBET” value ([1]; hybrid polarization condition with pemetrexed 10 nM versus no inhibitor or temsirolimus) is reported as “most consistently reduced TBET values”. The “T cell number after re-differentiation in pure TREG polarization (IL-2 plus TGF-β without IL-4)” value ([2]; most stringent step 1, cultures #20 and #21, in the presence of pemetrexed) was “unsuccessful”, the “T cell number after re-differentiation in TREG-Th2 polarization” value ([2]; step 1 temsirolimus, vitamin D, anti-IL-2 receptor antibody, pemetrexed 10 nM in step 2, 10 days) was “sufficient T cells” and the GM-CSF secretion ([3]; TREG-Th2 hybrid culture supplemented with pemetrexed 10 nM) was “higher degree”. The “ability of T cells to secrete IL-5” value [3] was “fully preserved” and the “ability of T cells to secrete IL-13” value [3] was “fully preserved”.

`CO[C@H]1C[C@@H]2CC[C@@H](C)[C@@](O)(O2)C(=O)C(=O)N2CCCC[C@H]2C(=O)O[C@H]([C@H](C)C[C@@H]2CC[C@@H](OC(=O)C(C)(CO)CO)[C@H](OC)C2)CC(=O)[C@H](C)/C=C(\C)[C@@H](O)[C@@H](OC)C(=O)[C@H](C)C[C@H](C)/C=C/C=C/C=C/1C` [temsirolimus] was tested, and the “Granzyme B RNA expression” value [4, 10] was “reduction”, the “IFN-gamma RNA expression” value [4, 10] was “reduction” and the “IL-10 RNA expression” value [4, 10] was “reduction”. For the same molecule, the “IL-7 receptor alpha RNA expression” value ([4]; Vitamin D 1.0 nM) was “capable of up-regulating”, the “KLF4 RNA expression” value ([4]; Vitamin D 1.0 nM) was “neither temsirolimus nor Vitamin D alone increased” and the “KLF10 RNA expression” value ([4]; Vitamin D 1.0 nM) was “acts alone to beneficially up-regulate”. For the same molecule, the “HIF-1-α RNA expression” value ([4]; Vitamin D 0.1 to 1.0 nM) was “did not down-regulate”, the “Nanog transcription factor RNA expression” value ([4]; Vitamin D 0.1 to 1.0 nM) was “up-regulation” and the “STAT1 RNA expression” value ([4]; Vitamin D 0.1 to 1.0 nM) was “acts alone to beneficially down-regulate”. The “T-BET RNA expression” value ([4]; Vitamin D 0.1 to 1.0 nM) was “acts alone to beneficially down-regulate”, the “T cell yield at day 13 with temsirolimus 0.1 µM” value [5] was “reduced the resultant T cell yield” and the “Raptor expression at temsirolimus 0.3 µM” value ([6]; culture 9, temsirolimus 0.3 µM, versus 1.0 µM) was “higher levels of Raptor expression”. The “temsirolimus dose for optimal down-regulation of Raptor” value ([6]; in combination with Vitamin D) was 1.0 µM, the “Rictor expression (western blot)” value [7] was “effective” and the “ability of T cells to secrete IL-5” value [3] was “blunted”. The “ability of T cells to secrete IL-13” value [3] was “blunted”.

For etanercept, the “post-treatment frequencies of contracted T cell clones (SEQ ID NOs: 1-3 and 5)” value ([8]; decreased from frequencies of 259 to 598 pre-etanercept) was 0.01, the “TCR specificities down-regulated in the post-therapy sample” value [8, 11] was “approximately 25%” and the “TCR specificities up-regulated in the post-therapy sample” value [8, 11] was “approximately 25%”. The “T cell clonal contraction” value ([8]; post- versus pre-etanercept) was “more than 4 log” and the “T cell clonal expansion” value ([8]; post- versus pre-etanercept) was “more than 4 log”.

B1: Daclizumab: anti-IL-2 receptor monoclonal antibody (antibody, chains of the INN, looked up, V domains shown)
VH: QVQLVQSGAEVKKPGSSVKVSCKASGYTFTSYRMHWVRQAPGQGLEWIGYINPSTGYTEYNQKFKDKATITADESTNTAYMELSSLRSEDTAVYYCARGGGVFDYWGQGTLVTVSS
VL: DIQMTQSPSTLSASVGDRVTITCSASSSISYMHWYQQKPGKAPKLLIYTTSNLASGVPARFSGSGSGTEFTLTISSLQPDDFATYYCHQRSTYPLTFGQGTKVEVK
With B1 the “BIM expression (western blot, normalized by actin)” value [9] was “beneficial role in suppressing”, the “Raptor expression (western blot, normalized by actin)” value ([6]; 1:3 bead-to-T cell ratio, temsirolimus 1.0 µM, Vitamin D 0.1 nM, daclizumab 50 µg/ml) was “beneficial role in suppressing” and the “Rictor expression (western blot)” value [7] was “did not abrogate”.
